Test results published in ChEMBL document CHEMBL1130802, “Design and synthesis of a new type of non steroidal human aromatase inhibitors” (Bioorg Med Chem Lett, 1998).

Assays:
Aromatase [1] = target: T1, Aromatase (Homo sapiens, UniProt P11511)
T1 sequence (P11511 whole entry): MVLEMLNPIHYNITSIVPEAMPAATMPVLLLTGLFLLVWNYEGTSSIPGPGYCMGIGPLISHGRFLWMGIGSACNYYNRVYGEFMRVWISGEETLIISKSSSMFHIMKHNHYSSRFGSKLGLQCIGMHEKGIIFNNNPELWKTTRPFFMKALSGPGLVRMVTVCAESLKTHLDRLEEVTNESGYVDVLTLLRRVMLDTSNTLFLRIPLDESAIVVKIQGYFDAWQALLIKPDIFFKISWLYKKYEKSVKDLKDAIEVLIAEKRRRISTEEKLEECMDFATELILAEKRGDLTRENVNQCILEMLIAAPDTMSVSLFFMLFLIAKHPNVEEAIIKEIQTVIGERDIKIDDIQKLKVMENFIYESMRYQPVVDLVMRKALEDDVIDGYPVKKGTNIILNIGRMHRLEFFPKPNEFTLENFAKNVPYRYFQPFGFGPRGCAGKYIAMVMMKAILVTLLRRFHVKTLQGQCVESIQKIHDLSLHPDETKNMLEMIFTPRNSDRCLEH
Description: Inhibition constant for human aromatase cytochrome P450 19A1 activity

Aromatase [2] = target: T1, Aromatase; remark: listed apart in the source
Description: Inhibition of human aromatase cytochrome P450 19A1 activity

O=C1/C(=C\c2ccncc2)C(c2ccccc2)c2ccccc21 (configuration not stated)
Ki (Aromatase [1]): 0.0103 µM
IC50 (Aromatase [2]): 0.8 µM
